Test results as given in US8519149B2, “Tricyclic compounds as mPGES-1 inhibitors” (Glenmark Pharmaceuticals S.A., priority 2010, dated 2013).

Target: T1, Recombinant human mPGES-1 (Homo sapiens, UniProt O14684)
T1 sequence (O14684 1-152): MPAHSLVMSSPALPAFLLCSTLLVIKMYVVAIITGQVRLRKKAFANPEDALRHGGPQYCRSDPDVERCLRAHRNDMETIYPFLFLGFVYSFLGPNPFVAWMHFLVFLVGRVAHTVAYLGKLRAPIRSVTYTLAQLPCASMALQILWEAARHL
Experiment: In-vitro mPGES-1 enzyme inhibition assay (PGE2 formation from PGH2, HTRF detection)
Assay type: biochemical
Settings: for inhibition at 1 µM: 1 μM test compound, read-out: Percentage inhibition at 1 μM; for inhibition at 1 µM / inhibition at 10 µM: recombinant human mPGES-1 microsomal fraction; for inhibition at 10 µM: 10 μM test compound, read-out: Percentage inhibition at 10 μM; for IC50: class symbols, selected examples
Procedure, shortened: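 Crude microsomal fractions containing recombinant human mPGES-1 (40-60 μg/mL protein) convert PGH2 to PGE2 in the presence of reduced glutathione, with 0.5% final DMSO. Reaction stopped with stannous chloride, and PGE2 measured by anti-PGE2 antibody (HTRF) detection. IC50 by nonlinear regression of % inhibition versus uninhibited enzyme control.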

Row | Compound | inhibition at 1 µM [%] | inhibition at 10 µM [%] | IC50 [nM]
1 | CC1(C)Cc2c(c(C(=O)NCC3CCCCC3)cc3nc(Nc4c(Cl)cncc4Cl)[nH]c23)O1 [Example-27, N-(Cyclohexylmethyl)-2-[(3,5-dichloropyridin-4-yl)amino]-7,7-dimethyl-7,8-dihydro-1H-furo[3,2-e]benzimidazole-5-carboxamide] | 93.7 | 93 | –
2 | CC1(C)Cc2c(c(C(=O)Nc3cccc(C(F)(F)F)c3)cc3nc(NC(=O)c4c(F)cccc4Cl)[nH]c23)O1 [Example-143, 2-(2-Chloro-6-fluorobenzamido)-7,7-dimethyl-N-(3-(trifluoromethyl)phenyl)-7,8-dihydro-1H-benzofuro[4,5-d]imidazole-5-carboxamide] | 19.6 | 39.2 | –
3 | Cc1cccc(Cl)c1Nc1nc2cc(C(=O)Nc3ccc(C(F)(F)F)c[n+]3[O-])c3c(c2[nH]1)CC(C)(C)O3 [Example-163, 2-(2-((2-Chloro-6-methylphenyl)amino)-7,7-dimethyl-7,8-dihydro-1H-benzofuro[4,5-d]imidazole-5-carboxamido)-5-(trifluoromethyl)pyridine 1-oxide] | 62.8 | 96.9 | –
4 | CC1(C)Cc2c(c(C(=O)Nc3ccc(C(F)(F)F)cn3)cc3nc(Nc4c(Cl)cccc4Cl)[nH]c23)O1 [Example-101, 2-[(2,6-Dichlorophenyl)amino]-7,7-dimethyl-N-[5-(trifluoromethyl)pyridin-2-yl]-7,8-dihydro-1H-furo[3,2-e]benzimidazole-5-carboxamide] | 97.6 | 98 | < 50
5 | CC1(C)Cc2c(c(C(=O)Nc3ccc(N4CCCC4)nc3)cc3nc(Nc4c(Cl)cccc4Cl)[nH]c23)O1 [Example-96, 2-[(2,6-Dichlorophenyl)amino]-7,7-dimethyl-N-[6-(pyrrolidin-1-yl)pyridin-3-yl]-7,8-dihydro-1H-furo[3,2-e]benzimidazole-5-carboxamide] | 90.4 | 95.1 | < 50
6 | Cc1cc2c(o1)c(C(=O)Nc1ccc(F)cc1)cc1nc(Nc3c(Cl)cncc3Cl)[nH]c12 [Example-36, 2-[(3,5-Dichloropyridin-4-yl)amino]-N-(4-fluorophenyl)-7-methyl-1H-furo[3,2-e]benzimidazole-5-carboxamide] | 92.4 | 99.3 | > 100
7 | Cc1cccc(Cl)c1Nc1nc2cc(C(=O)Nc3cc(C4CC4)ccc3F)c3c(c2[nH]1)CC(C)(C)O3 [Example-136, 2-((2-Chloro-6-methylphenyl)amino)-N-(5-cyclopropyl-2-fluorophenyl)-7,7-dimethyl-7,8-dihydro-1H-benzofuro[4,5-d]imidazole-5-carboxamide] | 89.4 | 96.9 | < 50
8 | CC1(C)Cc2c(c(C(=O)Nc3ccccc3F)cc3nc(Nc4c(F)cccc4Cl)[nH]c23)O1 [Example-51, 2-[(2-Chloro-6-fluorophenyl)amino]-N-(2-fluorophenyl)-7,7-dimethyl-7,8-dihydro-1H-furo[3,2-e]benzimidazole-5-carboxamide] | 96.9 | 99.4 | < 50
9 | Cc1cccc(Cl)c1Nc1nc2cc(C(=O)Nc3cccc(C(C)(F)F)c3)c3c(c2[nH]1)CC(C)(C)O3 [Example-120, 2-[(2-Chloro-6-methylphenyl)amino]-N-[3-(1,1-difluoroethyl)phenyl]-7,7-dimethyl-7,8-dihydro-1H-furo[3,2-e]benzimidazole-5-carboxamide] | 90.5 | 99 | < 50
10 | CC1(C)Cc2c(c(C(=O)NCc3ccccc3C(F)(F)F)cc3nc(Nc4c(Cl)cccc4Cl)[nH]c23)O1 [Example-82, 2-[(2,6-Dichlorophenyl)amino]-7,7-dimethyl-N-[2-(trifluoromethyl)benzyl]-7,8-dihydro-1H-furo[3,2-e]benzimidazole-5-carboxamide] | 94.1 | 97.6 | < 50
11 | CC1(C)Cc2c(c(C(=O)Nc3ccccc3C(F)(F)F)cc3nc(Nc4ccccc4Cl)[nH]c23)O1 [Example-79, 2-[(2-Chlorophenyl)amino]-7,7-dimethyl-N-[2-(trifluoromethyl)phenyl]-7,8-dihydro-1H-furo[3,2-e]benzimidazole-5-carboxamide] | 97.4 | 91.9 | 50 to 100
12 | Cc1nc2c(o1)c(C(=O)Nc1ccc(Br)cc1)cc1nc(Nc3c(Cl)cccc3Cl)[nH]c12 [Example-179, N-(4-Bromophenyl)-7-[(2,6-dichlorophenyl)amino]-2-methyl-8H-imidazo[4,5-e][1,3]benzoxazole-4-carboxamide] | 93.7 | 97.4 | < 50
13 | Cc1nc(NC(=O)c2cc3nc(Nc4c(F)cccc4Cl)[nH]c3c3c2OC(C)(C)C3)sc1C [Example-55, 2-[(2-Chloro-6-fluorophenyl)amino]-N-(4,5-dimethyl-1,3-thiazol-2-yl)-7,7-dimethyl-7,8-dihydro-1H-furo[3,2-e]benzimidazole-5-carboxamide] | 91.8 | 94.2 | > 100
14 | Cn1c(Nc2c(Cl)cncc2Cl)nc2cc(C(=O)NCC3CC3)c3c(c21)CC(C)(C)O3 [Example-220, N-(Cyclopropylmethyl)-2-((3,5-dichloropyridin-4-yl)amino)-1,7,7-trimethyl-7,8-dihydro-1H-benzofuro[4,5-d]imidazole-5-carboxamide] | 81.5 | 99.8 | –
15 | CCCCCCNC(=O)c1cc2nc(Nc3c(Cl)cncc3Cl)[nH]c2c2c1OC(C)(C)C2 [Example-3, 2-[(3,5-Dichloropyridin-4-yl)amino]-N-hexyl-7,7-dimethyl-7,8-dihydro-1H-furo[3,2-e]benzimidazole-5-carboxamide] | 99.1 | 99.5 | < 50
16 | Cc1cnc(NC(=O)c2cc3nc(Nc4c(Cl)cccc4Cl)[nH]c3c3c2OC(C)(C)C3)s1 [Example-40, 2-[(2,6-Dichlorophenyl)amino]-7,7-dimethyl-N-(5-methyl-1,3-thiazol-2-yl)-7,8-dihydro-1H-furo[3,2-e]benzimidazole-5-carboxamide] | 88.7 | 94.6 | < 50
17 | CC(C)(C)CC(C)(C)NC(=O)c1cc2nc(Nc3c(F)cccc3Cl)[nH]c2c2c1OC(C)(C)C2 [Example-52, 2-[(2-Chloro-6-fluorophenyl)amino]-7,7-dimethyl-N-(2,4,4-trimethylpentan-2-yl)-7,8-dihydro-1H-furo[3,2-e]benzimidazole-5-carboxamide] | 94.3 | 96 | < 50
18 | CC1(C)Cc2c(c(C(=O)NN3CCCC3)cc3nc(Nc4c(Cl)cccc4Cl)[nH]c23)O1 [Example-58, 2-[(2,6-Dichlorophenyl)amino]-7,7-dimethyl-N-(pyrrolidin-1-yl)-7,8-dihydro-1H-furo[3,2-e]benzimidazole-5-carboxamide] | 63.3 | 95.4 | –
19 | Cc1cc2c(o1)c(C(=O)NCc1ccc(F)cc1)cc1nc(Nc3c(Cl)cccc3Cl)[nH]c12 [Example-35, 2-[(2,6-Dichlorophenyl)amino]-N-(4-fluorobenzyl)-7-methyl-1H-furo[3,2-e]benzimidazole-5-carboxamide] | 89.3 | 99.1 | –
20 | CC1(C)Cc2c(c(C(=O)NNc3ccc(Br)cc3)cc3nc(Nc4c(Cl)cccc4Cl)[nH]c23)O1 [Example-74] | 93.4 | 94.7 | 50 to 100
21 | CC1(C)Cc2c(c(C(=O)Nc3ccccc3F)cc3nc(Nc4c(Cl)cccc4Cl)[nH]c23)O1 [Example-30, 2-[(2,6-Dichlorophenyl)amino]-N-(2-fluorophenyl)-7,7-dimethyl-7,8-dihydro-1H-furo[3,2-e]benzimidazole-5-carboxamide] | 93.8 | 92.5 | < 50
22 | Cc1ccc(NC(=O)c2cc3nc(Nc4c(F)cccc4Cl)[nH]c3c3c2OC(C)(C)C3)c(F)c1 [Example-128, 2-((2-Chloro-6-fluorophenyl)amino)-N-(2-fluoro-4-methylphenyl)-7,7-dimethyl-7,8-dihydro-1H-benzofuro[4,5-d]imidazole-5-carboxamide] | 90.5 | 94 | < 50
23 | CC(C)c1noc(-c2cc3nc(Nc4c(F)cccc4Cl)[nH]c3c3c2OC(C)(C)C3)n1 [Example-156, N-(2-Chloro-6-fluorophenyl)-5-(3-isopropyl-1,2,4-oxadiazol-5-yl)-7,7-dimethyl-7,8-dihydro-1H-benzofuro[4,5-d]imidazol-2-amine] | 33.1 | 92.2 | –
24 | CC1(C)Cc2c(c(C(=O)Nc3cccc(C(C)(F)F)c3)cc3nc(Nc4c(F)cccc4Cl)[nH]c23)O1 [Example-119, 2-[(2-Chloro-6-fluorophenyl)amino]-N-[3-(1,1-difluoroethyl)phenyl]-7,7-dimethyl-7,8-dihydro-1H-furo[3,2-e]benzimidazole-5-carboxamide] | 98.1 | 100 | < 50
25 | CC1(C)Cc2c(c(C(=O)NCC(F)(F)C(F)(F)F)cc3nc(Nc4ccc(F)cc4Cl)[nH]c23)O1 [Example-94, 2-[(2-Chloro-4-fluorophenyl)amino]-7,7-dimethyl-N-(2,2,3,3,3-pentafluoropropyl)-7,8-dihydro-1H-furo[3,2-e]benzimidazole-5-carboxamide] | 66 | 76.4 | –
